Results from PubChem BioAssay (NCI).
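GI50 = concentration required for 50% inhibition of growth. Definition used: TGI = concentration required for complete inhibition of growth.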

Legend:
Test in all cases: growth of human tumour cells (NCI), 384-well format
786-0 renal = tested on: 786-0 renal
A498 renal = tested on: A498 renal
A549 NSCLC = tested on: A549 NSCLC
ACHN renal = tested on: ACHN renal
BT-549 breast = tested on: BT-549 breast
CAKI-1 renal = tested on: CAKI-1 renal
CCRF-CEM leukemia = tested on: CCRF-CEM leukemia
COLO 205 colon = tested on: COLO 205 colon
DU-145 prostate = tested on: DU-145 prostate
EKVX NSCLC = tested on: EKVX NSCLC
HCC-2998 colon = tested on: HCC-2998 colon
HCT-116 colon = tested on: HCT-116 colon
HCT-15 colon = tested on: HCT-15 colon
HL-60(TB) leukemia = tested on: HL-60(TB) leukemia
HOP-62 NSCLC = tested on: HOP-62 NSCLC
HOP-92 NSCLC = tested on: HOP-92 NSCLC
HS 578T breast = tested on: HS 578T breast
HT29 colon = tested on: HT29 colon
IGROV1 ovarian = tested on: IGROV1 ovarian
K-562 leukemia = tested on: K-562 leukemia
KM12 colon = tested on: KM12 colon
LOX IMVI melanoma = tested on: LOX IMVI melanoma
M14 melanoma = tested on: M14 melanoma
MALME-3M melanoma = tested on: MALME-3M melanoma
MCF7 breast = tested on: MCF7 breast
MDA-MB-231 breast = tested on: MDA-MB-231 breast
MDA-MB-435 melanoma = tested on: MDA-MB-435 melanoma
MDA-MB-468 breast = tested on: MDA-MB-468 breast
MOLT-4 leukemia = tested on: MOLT-4 leukemia
NCI-H226 lung = tested on: NCI-H226 lung
NCI-H23 lung = tested on: NCI-H23 lung
NCI-H322M lung = tested on: NCI-H322M lung
NCI-H460 NSCLC = tested on: NCI-H460 NSCLC
NCI-H522 lung = tested on: NCI-H522 lung
NCI/ADR-RES ovarian = tested on: NCI/ADR-RES ovarian
OVCAR-3 ovarian = tested on: OVCAR-3 ovarian
OVCAR-4 ovarian = tested on: OVCAR-4 ovarian
OVCAR-5 ovarian = tested on: OVCAR-5 ovarian
OVCAR-8 ovarian = tested on: OVCAR-8 ovarian
PC-3 prostate = tested on: PC-3 prostate
RPMI-8226 leukemia = tested on: RPMI-8226 leukemia
RXF 393 renal = tested on: RXF 393 renal
SF-268 CNS = tested on: SF-268 CNS
SF-295 CNS = tested on: SF-295 CNS
SF-539 CNS = tested on: SF-539 CNS
SK-MEL-28 melanoma = tested on: SK-MEL-28 melanoma
SK-MEL-5 melanoma = tested on: SK-MEL-5 melanoma
SK-OV-3 ovarian = tested on: SK-OV-3 ovarian
SN12C renal = tested on: SN12C renal
SNB-19 CNS = tested on: SNB-19 CNS
SNB-75 CNS = tested on: SNB-75 CNS
SR leukemia = tested on: SR leukemia
SW-620 colon = tested on: SW-620 colon
T-47D breast = tested on: T-47D breast
TK-10 renal = tested on: TK-10 renal
U251 glioblastoma = tested on: U251 glioblastoma
UACC-257 melanoma = tested on: UACC-257 melanoma
UO-31 renal = tested on: UO-31 renal

Compound `COc1cccc2cc(-c3nc(C4CCC(C(=O)O)CC4)n4ncnc(N)c34)[nH]c12` (stereo unspecified) has a GI50 ([…]-0 renal) of 3.33 µM, a TGI (786-0 renal) of 19.5 µM and a GI50 (A498 renal) of 0.539 µM. For the same compound, the TGI (A498 renal) was 4.25 µM, the GI50 (A549 NSCLC) was 2.9 µM and the TGI (A549 NSCLC) was 27.9 µM. For the same compound, the GI50 (ACHN renal) was 1.18 µM, the TGI (ACHN renal) was 13 µM and the GI50 (BT-549 breast) was 1.17 µM. It also gave a TGI (BT-549 breast) of 5.36 µM, a GI50 (CAKI-1 renal) of 1.59 µM and a TGI (CAKI-1 renal) of 8.1 µM. For the same compound, the GI50 (CCRF-CEM leukemia) was 0.738 µM, the TGI (CCRF-CEM leukemia) was 10.5 µM and the GI50 (COLO 205 colon) was 1.18 µM. For the same compound, the TGI (COLO 205 colon) was 26.6 µM, the GI50 (DU-145 prostate) was 3.71 µM and the TGI (DU-145 prostate) was > 100 µM. It also gave a GI50 (EKVX NSCLC) of 1.1 µM, a TGI (EKVX NSCLC) of 11.6 µM and a GI50 (HCC-2998 colon) of 5.76 µM. The TGI (HCC-2998 colon) was 44.1 µM, the GI50 (HCT-116 colon) was 4.13 µM and the TGI (HCT-116 colon) was 62.4 µM. It also gave a GI50 (HCT-15 colon) of 1.36 µM, a TGI (HCT-15 colon) of 57 µM and a GI50 (HL-60(TB) leukemia) of 11.3 µM. For the same compound, the TGI (HL-60(TB) leukemia) was 23.8 µM, the GI50 (HOP-62 NSCLC) was 1.11 µM and the TGI (HOP-62 NSCLC) was 5.42 µM. The GI50 (HOP-92 NSCLC) was 1 µM, the TGI (HOP-92 NSCLC) was 8.38 µM and the GI50 (HS 578T breast) was 0.302 µM. For the same compound, the TGI (HS 578T breast) was 1.59 µM, the GI50 (HT29 colon) was 8.51 µM and the TGI (HT29 colon) was > 100 µM. The GI50 (IGROV1 ovarian) was 0.36 µM, the TGI (IGROV1 ovarian) was 4.38 µM and the GI50 (K-562 leukemia) was 2.61 µM. The TGI (K-562 leukemia) was 38 µM, the GI50 (KM12 colon) was 0.964 µM and the TGI (KM12 colon) was > 100 µM. For the same compound, the GI50 (LOX IMVI melanoma) was 2.69 µM, the TGI (LOX IMVI melanoma) was 10.3 µM and the GI50 (M14 melanoma) was 0.727 µM. For the same compound, the TGI (M14 melanoma) was 15.6 µM, the GI50 (MALME-3M melanoma) was 0.19 µM and the TGI (MALME-3M melanoma) was 0.878 µM. The GI50 (MCF7 breast) was 0.229 µM, the TGI (MCF7 breast) was > 100 µM and the GI50 (MDA-MB-231 breast) was 0.811 µM. For the same compound, the TGI (MDA-MB-231 breast) was > 100 µM, the GI50 (MDA-MB-435 melanoma) was 2.39 µM and the TGI (MDA-MB-435 melanoma) was 11.4 µM. It also gave a GI50 (MDA-MB-468 breast) of 0.21 µM, a TGI (MDA-MB-468 breast) of 1.52 µM and a GI50 (MOLT-4 leukemia) of 0.651 µM. The TGI (MOLT-4 leukemia) was 10.2 µM, the GI50 (NCI-H226 lung) was 1.15 µM and the TGI (NCI-H226 lung) was 6.68 µM. It also gave a GI50 (NCI-H23 lung) of 2.3 µM, a TGI (NCI-H23 lung) of 15 µM and a GI50 (NCI-H322M lung) of 0.426 µM. For the same compound, the TGI (NCI-H322M lung) was 21.5 µM, the GI50 (NCI-H460 NSCLC) was 0.39 µM and the TGI (NCI-H460 NSCLC) was 13 µM. The GI50 (NCI-H522 lung) was 0.4 µM, the TGI (NCI-H522 lung) was > 100 µM and the GI50 (NCI/ADR-RES ovarian) was 2.45 µM. It also gave a TGI (NCI/ADR-RES ovarian) of 17 µM, a GI50 (OVCAR-3 ovarian) of 0.442 µM and a TGI (OVCAR-3 ovarian) of 11.4 µM. The GI50 (OVCAR-4 ovarian) was 1.25 µM, the TGI (OVCAR-4 ovarian) was 5.75 µM and the GI50 (OVCAR-5 ovarian) was 3.09 µM. For the same compound, the TGI (OVCAR-5 ovarian) was 67.5 µM, the GI50 (OVCAR-8 ovarian) was 2.31 µM and the TGI (OVCAR-8 ovarian) was 49.5 µM. For the same compound, the GI50 (PC-3 prostate) was 0.56 µM, the TGI (PC-3 prostate) was 5.83 µM and the GI50 (RPMI-8226 leukemia) was 0.161 µM. The TGI (RPMI-8226 leukemia) was 0.542 µM, the GI50 (RXF 393 renal) was 1.49 µM and the TGI (RXF 393 renal) was 6.54 µM. It also gave a GI50 (SF-268 CNS) of 2.3 µM, a TGI (SF-268 CNS) of 31.3 µM and a GI50 (SF-295 CNS) of 1.16 µM. For the same compound, the TGI (SF-295 CNS) was 4.99 µM, the GI50 (SF-539 CNS) was 1.76 µM and the TGI (SF-539 CNS) was 10.4 µM. The GI50 (SK-MEL-28 melanoma) was 0.453 µM, the TGI (SK-MEL-28 melanoma) was 7.41 µM and the GI50 (SK-MEL-5 melanoma) was 0.518 µM. The TGI (SK-MEL-5 melanoma) was 2.18 µM, the GI50 (SK-OV-3 ovarian) was 1.44 µM and the TGI (SK-OV-3 ovarian) was 26.8 µM. For the same compound, the GI50 (SN12C renal) was 0.941 µM, the TGI (SN12C renal) was > 100 µM and the GI50 (SNB-19 CNS) was 8.96 µM. For the same compound, the TGI (SNB-19 CNS) was > 100 µM, the GI50 (SNB-75 CNS) was 0.382 µM and the TGI (SNB-75 CNS) was 2.81 µM. For the same compound, the GI50 (SR leukemia) was 0.293 µM, the TGI (SR leukemia) was 1.25 µM and the GI50 (SW-620 colon) was 4.22 µM. For the same compound, the TGI (SW-620 colon) was > 100 µM, the GI50 (T-47D breast) was 0.158 µM and the TGI (T-47D breast) was 0.725 µM. For the same compound, the GI50 (TK-10 renal) was 1.75 µM, the TGI (TK-10 renal) was 11 µM and the GI50 (U251 glioblastoma) was 4.36 µM. The TGI (U251 glioblastoma) was > 100 µM, the GI50 (UACC-257 melanoma) was 3.13 µM and the TGI (UACC-257 melanoma) was 27 µM. It also gave a GI50 (UO-31 renal) of 0.919 µM and a TGI (UO-31 renal) of 15.8 µM.
